Measurements reported in US20220089592A1, “IMIDAZO[1,2-A]PYRIDINYL DERIVATIVES AS IRAK4 INHIBITORS” (priority 2019, published 2022).

How the values were obtained:
[1] = target: T1, IRAK4 (Homo sapiens, UniProt Q9NWZ3); test: 2-hour 1 mM ATP IRAK4 Biochemical assay (as above, but with 100 pM IRAK4 and 1 mM ATP); conditions: IRAK4 MSD BIOCHEMICAL (1 mM ATP) IC50 (μM), 100 pM IRAK4, 2 hours
T1 sequence (Q9NWZ3 1-460): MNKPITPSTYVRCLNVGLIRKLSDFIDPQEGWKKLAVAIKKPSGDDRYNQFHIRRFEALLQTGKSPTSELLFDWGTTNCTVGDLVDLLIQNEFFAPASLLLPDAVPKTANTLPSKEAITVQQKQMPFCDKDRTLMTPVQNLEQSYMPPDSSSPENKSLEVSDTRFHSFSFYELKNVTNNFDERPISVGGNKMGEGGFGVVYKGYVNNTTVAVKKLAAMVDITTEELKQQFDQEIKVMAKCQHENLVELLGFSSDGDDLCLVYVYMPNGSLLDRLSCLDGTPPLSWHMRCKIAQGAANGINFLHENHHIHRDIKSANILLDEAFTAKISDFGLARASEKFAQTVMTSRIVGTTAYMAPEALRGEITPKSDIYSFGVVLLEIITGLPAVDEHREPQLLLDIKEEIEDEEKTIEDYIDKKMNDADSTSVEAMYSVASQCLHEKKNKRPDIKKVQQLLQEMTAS
Method in brief: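 Run with 100 pM IRAK4 and 1 mM ATP for 2 hours, quenched with EDTA pH 8. Phosphorylated biotinylated peptide captured on streptavidin MSD plates and detected with anti-phosphothreonine antibody plus Sulfo-Tag secondary by electrochemiluminescence.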

[2] = target: T1, IRAK4; test: 2-hour 10 μM ATP Biochemical Assay (MesoScale Detection format; IRAK4 phosphorylation of biotin labeled IRAK1 activation loop peptide); conditions: IRAK4 MSD BIOCHEMICAL (10 μM ATP) IC50 (μM), 1 nM IRAK4, 2 hours
Method in brief: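 Kinase reaction run 2 h at 10 μM ATP with biotinylated IRAK1 activation-loop peptide, quenched with EDTA. Phospho-peptide captured on streptavidin MSD plates and detected with anti-phosphothreonine rabbit antibody plus Sulfo-Tag anti-rabbit electrochemiluminescence.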

SMILES: CCOc1cc2nc(CCCO)cn2cc1NC(=O)c1cccc(C(F)F)n1 [Example 23, 6-(difluoromethyl)-N-(7-ethoxy-2-(3-hydroxypropyl)imidazo[1,2-a]pyridin-6-yl)picolinamide]
- IC50 [1]: 0.002 µM
- IC50 [2]: 0.001 µM

SMILES: CCOc1cc2nc(CC3CCOC3)cn2cc1NC(=O)c1ccc2c(n1)CCC2 (stereo not drawn) [Example 369, N-(7-ethoxy-2-((tetrahydrofuran-3-yl)methyl)imidazo[1,2-a]pyridin-6-yl)-6,7-dihydro-5H-cyclopenta[b]pyridine-2-carboxamide]
- IC50 [1]: 0.026 µM
- IC50 [2]: 0.002 µM

SMILES: CCOc1nc2nc(CC3CCOC3)cn2cc1NC(=O)c1cccc(C(F)(F)F)n1 (stereo not drawn) [Example 93, N-(7-ethoxy-2-((tetrahydrofuran-3-yl)methyl)imidazo[1,2-a]pyrimidin-6-yl)-6-(trifluoromethyl)picolinamide]
- IC50 [1]: 0.005 µM
- IC50 [2]: 0.001 µM

SMILES: CC1(COc2cc3nc(CC4CCOC4)cn3cc2NC(=O)c2cccc(C(F)(F)F)n2)COC1 (stereo not drawn) [Example 163, N-(7-((3-methyloxetan-3-yl)methoxy)-2-((tetrahydrofuran-3-yl)methyl)imidazo[1,2-a]pyridin-6-yl)-6-(trifluoromethyl)picolinamide]
- IC50 [1]: 0.007 µM
- IC50 [2]: 0.002 µM

SMILES: CCOc1cc2nc(C(C)C3CCOC3)cn2cc1NC(=O)c1cccc(C(F)(F)F)n1 (mixture of isomers) [Example 137, N-(7-ethoxy-2-(1-(tetrahydrofuran-3-yl)ethyl)imidazo[1,2-a]pyridin-6-yl)-6-(trifluoromethyl)picolinamide]
- IC50 [1]: 0.001 µM
- IC50 [2]: 0.001 µM

SMILES: CCOc1cc2nc(C3CCOCC3)cn2cc1NC(=O)c1cccc(OCCOC)n1 [Example 516, N-(7-ethoxy-2-(tetrahydro-2H-pyran-4-yl)imidazo[1,2-a]pyridin-6-yl)-6-(2-methoxyethoxy)picolinamide]
- IC50 [1]: 0.034 µM
- IC50 [2]: 0.007 µM

SMILES: CCOc1cc2nc(C3CC(F)(F)C3)cn2cc1NC(=O)c1cccc(C(F)(F)F)n1 [Example 33, N-(2-(3,3-difluorocyclobutyl)-7-ethoxyimidazo[1,2-a]pyridin-6-yl)-6-(trifluoromethyl)picolinamide]
- IC50 [1]: 0.011 µM
- IC50 [2]: 0.003 µM

SMILES: O=C(Nc1cn2cc(C3CC3)nc2cc1N1CCN(CC(F)F)CC1)c1cccc(C(F)(F)F)n1 [Example 24, N-(2-cyclopropyl-7-(4-(2,2-difluoroethyl)piperazin-1-yl)imidazo[1,2-a]pyridin-6-yl)-6-(trifluoromethyl)picolinamide]
- IC50 [1]: 0.004 µM
- IC50 [2]: 0.002 µM

SMILES: CC1(C)CC(Oc2cc3nc(C4CCOCC4)cn3cc2NC(=O)c2cccc(C(F)F)n2)CO1 (stereo not drawn) [Example 184, 6-(difluoromethyl)-N-(7-((5,5-dimethyltetrahydrofuran-3-yl)oxy)-2-(tetrahydro-2H-pyran-4-yl)imidazo[1,2-a]pyridin-6-yl)picolinamide]
- IC50 [1]: 0.002 µM
- IC50 [2]: 0.001 µM

SMILES: O=C(Nc1cn2cc(C3CCOCC3)nc2cc1OC1COC1)c1cccc(C(F)F)n1 [Example 182, 6-(difluoromethyl)-N-(7-(oxetan-3-yloxy)-2-(tetrahydro-2H-pyran-4-yl)imidazo[1,2-a]pyridin-6-yl)picolinamide]
- IC50 [1]: 0.004 µM
- IC50 [2]: 0.001 µM

SMILES: CCOc1cc2nc(C3CCCC(=O)N3C)cn2cc1NC(=O)c1cccc(C(F)F)n1 (stereo not drawn) [Example 246, 6-(difluoromethyl)-N-(7-ethoxy-2-(1-methyl-6-oxopiperidin-2-yl)imidazo[1,2-a]pyridin-6-yl)picolinamide]
- IC50 [1]: 0.001 µM
- IC50 [2]: 0.001 µM

SMILES: CCOc1nc2nc(CC)cn2cc1NC(=O)c1cccc(C(F)F)n1 [Example 74, 6-(difluoromethyl)-N-(7-ethoxy-2-ethylimidazo[1,2-a]pyrimidin-6-yl)picolinamide]
- IC50 [1]: 0.018 µM
- IC50 [2]: 0.007 µM

SMILES: CC1(COc2cc3nc(C[C@H]4CCOC4)cn3cc2NC(=O)c2cccc(C(F)(F)F)n2)COC1 (single isomer, unassigned) [Example 165]
- IC50 [1]: 0.006 µM
- IC50 [2]: 0.002 µM

SMILES: CCOc1cc2nc(C(F)F)cn2cc1NC(=O)c1cccc(C(F)(F)F)n1 [Example 57, N-(2-(difluoromethyl)-7-ethoxyimidazo[1,2-a]pyridin-6-yl)-6-(trifluoromethyl)picolinamide]
- IC50 [1]: 0.008 µM
- IC50 [2]: 0.003 µM

SMILES: CCOc1cc2nc(C(C)(C)C#N)cn2cc1NC(=O)c1coc(C2CC2)n1 [Example 360, N-(2-(2-cyanopropan-2-yl)-7-ethoxyimidazo[1,2-a]pyridin-6-yl)-2-cyclopropyloxazole-4-carboxamide]
- IC50 [1]: 0.005 µM
- IC50 [2]: 0.006 µM

SMILES: COc1cc(NC(=O)c2cccc(C(F)F)n2)cn2cc(C3CCOC(C)(C)C3)nc12 (stereo not drawn) [Example 510, 6-(difluoromethyl)-N-(2-(2,2-dimethyltetrahydro-2H-pyran-4-yl)-8-methoxyimidazo[1,2-a]pyridin-6-yl)picolinamide 2,2,2-trifluoroacetate]
- IC50 [1]: 0.002 µM
- IC50 [2]: 0.001 µM

SMILES: CCOc1cc2nc(CC3CCOCC3)cn2cc1NC(=O)c1cccc(C(F)F)n1 [Example 151, 6-(difluoromethyl)-N-(7-ethoxy-2-((tetrahydro-2H-pyran-4-yl)methyl)imidazo[1,2-a]pyridin-6-yl)picolinamide]
- IC50 [1]: 0.002 µM
- IC50 [2]: 0.001 µM

SMILES: CCOc1cc2nc(C3CCOCC3)cn2cc1NC(=O)c1scc(C)c1OC [Example 211, N-(7-ethoxy-2-(tetrahydro-2H-pyran-4-yl)imidazo[1,2-a]pyridin-6-yl)-3-methoxy-4-methylthiophene-2-carboxamide]
- IC50 [1]: 0.022 µM
- IC50 [2]: 0.007 µM

SMILES: CCOc1cc2nc([C@H]3C[C@@H](OC)C3)cn2cc1NC(=O)c1cccc(C(F)F)n1 [Example 115, 6-(difluoromethyl)-N-(7-ethoxy-2-((1s,3s)-3-methoxycyclobutyl)imidazo[1,2-a]pyridin-6-yl)picolinamide]
- IC50 [1]: 0.002 µM
- IC50 [2]: 0.001 µM

SMILES: CCOc1cc2nc([C@H]3C[C@H](O)C3)cn2cc1NC(=O)c1cccc(C(F)F)n1 [Example 96]
- IC50 [1]: 0.001 µM
- IC50 [2]: 0.001 µM

SMILES: CCOc1cc2nc(C3CCSC3)cn2cc1NC(=O)c1cccc(C(F)F)n1 (stereo not drawn) [Example 150, 6-(difluoromethyl)-N-(7-ethoxy-2-(tetrahydrothiophen-3-yl)imidazo[1,2-a]pyridin-6-yl)picolinamide]
- IC50 [1]: 0.002 µM
- IC50 [2]: 0.001 µM

SMILES: CCOc1cc2nc(C3CCOCC3)cn2cc1NC(=O)c1csc(CC)n1 [Example 202, N-(7-ethoxy-2-(tetrahydro-2H-pyran-4-yl)imidazo[1,2-a]pyridin-6-yl)-2-ethylthiazole-4-carboxamide]
- IC50 [1]: 0.004 µM
- IC50 [2]: 0.002 µM

SMILES: O=C(Nc1cn2cc(C3CC3)nc2cc1OCC1CCC1)c1cccc(C(F)F)n1 [Example 5, N-(7-(cyclobutylmethoxy)-2-cyclopropylimidazo[1,2-a]pyridin-6-yl)-6-(difluoromethyl)picolinamide]
- IC50 [1]: 0.003 µM
- IC50 [2]: 0.003 µM

SMILES: COc1cc2nc(C3CC3)cn2cc1NC(=O)c1cccc(C(F)F)n1 [Example 4, N-(2-cyclopropyl-7-methoxyimidazo[1,2-a]pyridin-6-yl)-6-(difluoromethyl)picolinamide]
- IC50 [1]: 0.015 µM
- IC50 [2]: 0.004 µM

SMILES: CCOc1nc2nc(C3CC3)cn2cc1NC(=O)c1cccc(C(F)F)n1 [Example 243, N-(2-cyclopropyl-7-ethoxyimidazo[1,2-a]pyrimidin-6-yl)-6-(difluoromethyl)picolinamide]
- IC50 [1]: 0.014 µM
- IC50 [2]: 0.003 µM

SMILES: CCOc1cc2nc(C(C)(C)C#N)cn2cc1NC(=O)c1coc(C(C)C)n1 [Example 358, N-(2-(2-cyanopropan-2-yl)-7-ethoxyimidazo[1,2-a]pyridin-6-yl)-2-isopropyloxazole-4-carboxamide]
- IC50 [1]: 0.014 µM
- IC50 [2]: 0.006 µM

SMILES: CCOc1cc2nc(C(F)(F)CCOC)cn2cc1NC(=O)c1cccc(C(F)F)n1 [Example 149, N-(2-(1,1-difluoro-3-methoxypropyl)-7-ethoxyimidazo[1,2-a]pyridin-6-yl)-6-(difluoromethyl)picolinamide]
- IC50 [1]: 0.003 µM
- IC50 [2]: 0.002 µM

SMILES: CCOc1cc2nc(C3CCOCC3)cn2cc1NC(=O)c1ccn(C)n1 [Example 204, N-(7-ethoxy-2-(tetrahydro-2H-pyran-4-yl)imidazo[1,2-a]pyridin-6-yl)-1-methyl-1H-pyrazole-3-carboxamide]
- IC50 [1]: 0.021 µM
- IC50 [2]: 0.004 µM

SMILES: CCOc1cc2nc(C3CCOCC3)cn2cc1NC(=O)c1ccc(F)cn1 [Example 219, N-(7-ethoxy-2-(tetrahydro-2H-pyran-4-yl)imidazo[1,2-a]pyridin-6-yl)-5-fluoropicolinamide]
- IC50 [1]: 0.055 µM
- IC50 [2]: 0.007 µM

SMILES: CCOc1cc2nc(Cn3cncn3)cn2cc1NC(=O)c1cccc(C(F)F)n1 [Example 82, N-(2-((1H-1,2,4-triazol-1-yl)methyl)-7-ethoxyimidazo[1,2-a]pyridin-6-yl)-6-(difluoromethyl)picolinamide]
- IC50 [1]: 0.004 µM
- IC50 [2]: 0.001 µM
